Source: patent publication US9000194B2, “Mangromicin compound and production method therefor” (The Kitasato Institute, priority 2011, dated 2015)
In brackets after ≈: the same amount, converted by molar mass.

Legend:
[1] = test system: Trypanosoma brucei brucei GUTat 3.1 strain; assay: In vitro inhibitory activity on trypanosoma protozoa proliferation (Alamar Blue); settings: for IC50: Trypanosoma brucei, 72 h, read-out: IC50 value Trypanosoma brucei brucei GUTat3.1 strain
[2] = test system: human fetal lung-derived normal fibroblast MRC-5 cells; assay: Cytotoxicity test (MTT assay); assay type: cell-based; settings: for IC50: Homo sapiens, MRC5, 168 h, seven days culture, MTT assay, read-out: IC50 value MRC-5 cell; for Selectivity index (MRC-5 cytotoxicity IC50 / anti-trypanosoma IC50): (IC50 values for cytotoxicity)/(IC50 values for anti-trypanosoma activity)
Protocol: J. Antibiotics, 54: 658 to 663, (2001)]. That is, the human fetal lung-derived normal fibroblast MRC-5 cells [can be provided by Dr. […], Belgium)] were maintained and subcultured in the MEM-medium containing 10% bovine fetal serum (FCS) and antibiotics and were used as the host cell model. […] The presence or absence of the proliferation of the MRC-5 cells was measured by colorimetric quantification by the MTT assay. […] Also, the selectivity index (SI) was calculated as (IC50 values for cytotoxicity)/(IC50 values for anti-trypanosoma activity).

[3] = test system: the microorganisms listed in Table 7; assay: Antibacterial activity, paper disc method, overall statement; assay type: cell-based; settings: summary in words
Protocol: The antibacterial activities of Mangromicins A, B and C of the present invention were measured by the following method. Filter paper discs (Advantec, a diameter of 6 mm) were impregnated with 10 μL of 1 mg/mL solutions of Mangromicins A, B and C in methanol, and air-dried for a certain period of time to remove the solvent. Subsequently, the discs were placed on agar plates each containing the test bacteria shown in Table 7, followed by culturing at 35° C. for 24 hours. The diameter of the growth inhibiting zones formed around the paper discs was measured.

[4] = test system: Bacillus subtilis ATCC6633; assay: Antibacterial activity, paper disc method; assay type: cell-based; settings: 6 mm disc, 10 μL of 1 mg/mL, 35° C., 24 hours, read-out: the diameter of inhibiton zones

## NCCCC(N)(C(=O)O)C(F)F (centres unmarked) [Eflornithine, eflornithine, reference compound]
[1]
  IC50: 2.27 µg/mL (≈ 12.5 µM)
[2]
  IC50: > 100 µg/mL

## CCCC1C(O)=C2CCC3(C)CC(C)C(O3)C(O)C(O)C(C)C(=O)CC1OC2=O (centres unmarked) [Mangromicin A]
[1]; T.b.b. GUTat 3.1 strain, relative to suramin and eflornithine
  anti-trypanosoma activity compared to suramin and eflornithine: equivalent or slightly inferior
[1]
  IC50: 2.44 µg/mL (≈ 5.94 µM)
[3]
  antibacterial activities on the microorganisms listed in Table 7: almost no antibacterial activities
[2]
  Selectivity index (MRC-5 cytotoxicity IC50 / anti-trypanosoma IC50): 6.6
  IC50: 16 µg/mL (≈ 39 µM)

## CCCC1C(O)=C2CCC3(C)CC(C)C(O3)C(O)/C=C(\C)C(=O)CC1OC2=O (centres unmarked) [Mangromicin B]
[4]
  zone of inhibition at 1000 µg/mL: 7 mm
[1]
  IC50: 43.4 µg/mL (≈ 111 µM)
[3]
  antibacterial activities on the microorganisms listed in Table 7: almost no antibacterial activities
[2]
  Selectivity index (MRC-5 cytotoxicity IC50 / anti-trypanosoma IC50): 2.1
  IC50: 92.6 µg/mL (≈ 236 µM)

## Cc1ccc(C(=O)Nc2ccc(S(=O)(=O)O)c3cc(S(=O)(=O)O)cc(S(=O)(=O)O)c23)cc1NC(=O)c1cccc(NC(=O)Nc2cccc(C(=O)Nc3cc(C(=O)Nc4ccc(S(=O)(=O)O)c5cc(S(=O)(=O)O)cc(S(=O)(=O)O)c45)ccc3C)c2)c1 [Suramin, suramin, reference compound]
[1]
  IC50: 1.58 µg/mL (≈ 1.22 µM)
[2]
  IC50: > 100 µg/mL
